In patent US9271978B2 (Zenith Epigenetics Corp., priority 2012, dated 2016):

Key:
Parameters in all cases: key: Active: Compounds with an IC50 value less than 30 μM were deemed to be active.; Not Active: Compounds with an IC50 value less than 30 μM were deemed to be active
[1] = biological target: T1, Brd4 bromodomain 1 (BRD4(1)) (Homo sapiens, UniProt O60885); test: Inhibition of tetra-acetylated histone H4 binding to Brd4 bromodomain 1 (TR-FRET); conditions: tetra-acetylated histone H4 peptide, active = IC50 <30 μM
T1 construct: Illustrative results with the first bromodomain of Brd4; made in house; host or cells: E. coli BL21 (DE3)
Procedure, shortened: (§1)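 N-terminally His-tagged bromodomains (200 nM), expressed in E. coli, were incubated with biotinylated tetra-acetylated histone H4 peptide (25-50 nM), Eu-cryptate streptavidin and XL665 anti-His antibody in HEPES pH 7.4 buffer with KF, 0.2% DMSO, 2 h at room temperature. Inhibition read as decreased 665/620 nm TR-FRET; IC50 from dose-response curves.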

[2] = biological target: T2, second bromodomain of Brd2 (BRD2(2)) (Homo sapiens, UniProt P25440); test: Inhibition of tetra-acetylated histone H4 binding to Brd2 bromodomain 2 (TR-FRET); conditions: tetra-acetylated histone H4 peptide, active = IC50 <30 μM
T2 construct: made in house; host or cells: E. coli BL21 (DE3)
T2 sequence (P25440 344-453 limits assumed): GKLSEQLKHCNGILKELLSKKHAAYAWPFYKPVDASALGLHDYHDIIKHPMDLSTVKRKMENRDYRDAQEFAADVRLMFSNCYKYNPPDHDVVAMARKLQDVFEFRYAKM
Procedure, shortened: as §1

[3] = tested on: c-myc; test: Inhibition of c-myc expression in MV4-11 cells (mRNA, real-time PCR); format: cell-based; conditions: Human AML MV4-11 cells, 3 h incubation
Procedure, shortened: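 MV4-11 cells (2.5×10^4) treated with compound or 0.1% DMSO for 3 h at 37 °C. c-myc mRNA measured by RT real-time PCR duplexed with cyclophilin. IC50 from dose–response curve.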

[4] = tested on: human AML MV-4-11 (CRL-9591) cells; test: Inhibition of cell proliferation in MV4-11 cells; format: cell-based; conditions: human AML MV-4-11 cells, 72 h; active = IC50 <30 μM
Procedure, shortened: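 Exponentially growing MV-4-11 cells (5×10^4/well) were treated immediately with two-fold dilutions of compound from 30 μM to 0.2 μM, in triplicate, for 72 h at 37° C, 5% CO2. Viability was measured by MTS absorbance at 490 nm after 3–4 h. Proliferation relative to DMSO after blank correction gave IC50.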

[5] = tested on: hIL-6 mRNA; test: Inhibition of hIL-6 mRNA transcription in U937 cells; format: cell-based, human; conditions: LPS stimulation, active = IC50 <30 μM
Procedure, shortened: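 U937 cells differentiated 3 days with 60 ng/mL PMA, pretreated 1 h with compound, then stimulated with 1 ug/mL E. coli LPS for 3 h at 37° C. hIL-6 mRNA quantified by one-step qRT-PCR, Ct normalized to internal control, expressed as fold induction relative to control.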

Q: COc1ccc(Nc2ccc(=O)n(Cc3ccccc3)c2)cc1OC [Example 65, 1-Benzyl-5-((3,4-dimethoxyphenyl)amino)pyridin-2(1H)-one] was tested. Which “FRET activity (IC50 <30 μM) BRD4(1)” value [1] did it give?
A: Active

Q: And the “FRET activity (IC50 <30 μM) BRD2(2)” value [2]?
A: Active

Q: What about the “c-myc activity (IC50 <30 μM)” value [3] of the same compound?
A: Active

Q: And the “Cell Proliferation activity (IC50 <30 μM)” value (“Cell Proliferation activity” below) [4]?
A: Active

Q: And the “IL-6 activity (IC50 <30 μM)” value [5]?
A: Active

Q: With Cc1noc(C)c1-c1cc(-c2ccc(F)cc2)c(=O)n(Cc2ccccc2)c1 [Example 70, 1-Benzyl-5-(3,5-dimethylisoxazol-4-yl)-3-(4-fluorophenyl)pyridin-2(1H)-one] as the compound, how does the “FRET activity (IC50 <30 μM) BRD4(1)” value [1] read?
A: Active

Q: What about the “FRET activity (IC50 <30 μM) BRD2(2)” value [2] of the same compound?
A: Active

Q: And the “c-myc activity (IC50 <30 μM)” value [3]?
A: Active

Q: What about the “Cell Proliferation activity” value [4] of the same compound?
A: Active

Q: What about the “IL-6 activity (IC50 <30 μM)” value [5] of the same compound?
A: Active

Q: For COc1cccc(Cn2cc(-c3c(C)noc3C)ccc2=O)c1 [Example 78, 5-(3,5-Dimethylisoxazol-4-yl)-1-(3-methoxybenzyl)pyridin-2(1H)-one], which “FRET activity (IC50 <30 μM) BRD4(1)” value [1] is on record?
A: Active

Q: What about the “FRET activity (IC50 <30 μM) BRD2(2)” value [2] of the same compound?
A: Active

Q: And the “c-myc activity (IC50 <30 μM)” value [3]?
A: Active

Q: And the “Cell Proliferation activity” value [4]?
A: Active

Q: And the “IL-6 activity (IC50 <30 μM)” value [5]?
A: Active

Q: Which “FRET activity (IC50 <30 μM) BRD4(1)” value [1] does the source give for Cc1noc(C)c1-c1cc(C)c(=O)n(Cc2ccccc2F)n1 [Example 84, 6-(3,5-Dimethylisoxazol-4-yl)-2-(2-fluorobenzyl)-4-methylpyridazin-3(2H)-one] here?
A: Active

Q: And the “FRET activity (IC50 <30 μM) BRD2(2)” value [2]?
A: Active

Q: What about the “c-myc activity (IC50 <30 μM)” value [3] of the same compound?
A: Not Active

Q: And the “Cell Proliferation activity” value [4]?
A: Not Active

Q: And the “IL-6 activity (IC50 <30 μM)” value [5]?
A: Active

Q: Which “FRET activity (IC50 <30 μM) BRD4(1)” value [1] does the source give for Cc1noc(C)c1-c1ccc(=O)n(Cc2ccc(C(F)(F)F)cc2)n1 [Example 91, 6-(3,5-Dimethylisoxazol-4-yl)-2-(4-(trifluoromethyl)benzyl)pyridazin-3(2H)-one] here?
A: Active

Q: And the “FRET activity (IC50 <30 μM) BRD2(2)” value [2]?
A: Active

Q: What about the “c-myc activity (IC50 <30 μM)” value [3] of the same compound?
A: Not Active

Q: And the “Cell Proliferation activity” value [4]?
A: Active

Q: And the “IL-6 activity (IC50 <30 μM)” value [5]?
A: Not Active

Q: Cc1noc(C)c1-c1ccc(=O)n(Cc2ccccc2F)n1 [Example 93, 6-(3,5-Dimethylisoxazol-4-yl)-2-(2-fluorobenzyl)pyridazin-3(2H)-one] was tested. Which “FRET activity (IC50 <30 μM) BRD4(1)” value [1] did it give?
A: Active

Q: And the “FRET activity (IC50 <30 μM) BRD2(2)” value [2]?
A: Active

Q: What about the “c-myc activity (IC50 <30 μM)” value [3] of the same compound?
A: Not Active

Q: And the “Cell Proliferation activity” value [4]?
A: Active

Q: And the “IL-6 activity (IC50 <30 μM)” value [5]?
A: Not Active

Q: For Cc1noc(C)c1-c1ccc(=O)n(Cc2ccccc2C(F)(F)F)n1 [Example 94, 6-(3,5-Dimethylisoxazol-4-yl)-2-(2-(trifluoromethyl)benzyl)pyridazin-3(2H)-one], which “FRET activity (IC50 <30 μM) BRD4(1)” value [1] is on record?
A: Active

Q: What about the “FRET activity (IC50 <30 μM) BRD2(2)” value [2] of the same compound?
A: Active

Q: What about the “c-myc activity (IC50 <30 μM)” value [3] of the same compound?
A: Not Active

Q: And the “Cell Proliferation activity” value [4]?
A: Active

Q: What about the “IL-6 activity (IC50 <30 μM)” value [5] of the same compound?
A: Not Active

Q: How did the “FRET activity (IC50 <30 μM) BRD4(1)” value [1] turn out when Cc1noc(C)c1-c1ccc(=O)n(C(C)c2ccccc2F)n1 (stereo not drawn) [Example 95, 6-(3,5-Dimethylisoxazol-4-yl)-2-(1-(2-fluorophenyl)ethyl)pyridazin-3(2H)-one] was run?
A: Active

Q: And the “FRET activity (IC50 <30 μM) BRD2(2)” value [2]?
A: Active

Q: And the “c-myc activity (IC50 <30 μM)” value [3]?
A: Not Active

Q: What about the “Cell Proliferation activity” value [4] of the same compound?
A: Not Active

Q: What about the “IL-6 activity (IC50 <30 μM)” value [5] of the same compound?
A: Active

Q: Which results are given for Cc1noc(C)c1-c1ccc(=O)n(Cc2c(F)cccc2Cl)n1 [Example 96, 2-(2-Chloro-6-fluorobenzyl)-6-(3,5-dimethylisoxazol-4-yl)pyridazin-3(2H)-one]?
A: FRET activity (IC50 <30 μM) BRD4(1) [1]: Active; FRET activity (IC50 <30 μM) BRD2(2) [2]: Active; c-myc activity (IC50 <30 μM) [3]: Active; Cell Proliferation activity (IC50 <30 μM) [4]: Active; IL-6 activity (IC50 <30 μM) [5]: Active

Q: With Cc1noc(N)c1-c1ccc(=O)n(Cc2ccccc2)c1 [Example 98, 5-(5-Amino-3-methylisoxazol-4-yl)-1-benzylpyridin-2(1H)-one trifluoroacetic acid] as the compound, how does the “FRET activity (IC50 <30 μM) BRD4(1)” value [1] read?
A: Active

Q: And the “FRET activity (IC50 <30 μM) BRD2(2)” value [2]?
A: Active

Q: What about the “c-myc activity (IC50 <30 μM)” value [3] of the same compound?
A: Not Active

Q: And the “Cell Proliferation activity” value [4]?
A: Active

Q: And the “IL-6 activity (IC50 <30 μM)” value [5]?
A: Active

Q: How did the “FRET activity (IC50 <30 μM) BRD4(1)” value [1] turn out when Cc1noc(C)c1-c1ccc(=O)n(C(C)c2ccc(F)cc2)c1 (stereo not drawn) [Example 101, 5-(3,5-Dimethylisoxazol-4-yl)-1-(1-(4-fluorophenyl)ethyl)pyridin-2(1H)-one] was run?
A: Active

Q: What about the “FRET activity (IC50 <30 μM) BRD2(2)” value [2] of the same compound?
A: Active

Q: What about the “c-myc activity (IC50 <30 μM)” value [3] of the same compound?
A: Active

Q: And the “Cell Proliferation activity” value [4]?
A: Active

Q: And the “IL-6 activity (IC50 <30 μM)” value [5]?
A: Active

Q: What does the source list for Cc1noc(C)c1-c1ccc(=O)n(Cc2ccsc2)n1 [Example 107, 6-(3,5-Dimethylisoxazol-4-yl)-2-(thiophen-3-ylmethyl)pyridazin-3(2H)-one]?
A: FRET activity (IC50 <30 μM) BRD4(1) [1]: Active; FRET activity (IC50 <30 μM) BRD2(2) [2]: Active; c-myc activity (IC50 <30 μM) [3]: Not Active; Cell Proliferation activity (IC50 <30 μM) [4]: Active; IL-6 activity (IC50 <30 μM) [5]: Active

Q: How did the “FRET activity (IC50 <30 μM) BRD4(1)” value [1] turn out when Cc1noc(C)c1-c1ccc(=O)n(C(C)c2cccc(Cl)c2)c1 (stereo not drawn) [Example 113, 1-(1-(3-Chlorophenyl)ethyl)-5-(3,5-dimethylisoxazol-4-yl)pyridin-2(1H)-one] was run?
A: Active

Q: And the “FRET activity (IC50 <30 μM) BRD2(2)” value [2]?
A: Active

Q: What about the “c-myc activity (IC50 <30 μM)” value [3] of the same compound?
A: Active

Q: And the “Cell Proliferation activity” value [4]?
A: Active

Q: What about the “IL-6 activity (IC50 <30 μM)” value [5] of the same compound?
A: Active

Q: What does the source list for COc1cc(-c2ccc(=O)n(Cc3ccc(C(C)(C)C)cc3)n2)cc(OC)c1OC [Example 120, 2-(4-(tert-Butyl)benzyl)-6-(3,4,5-trimethoxyphenyl)pyridazin-3(2H)-one]?
A: FRET activity (IC50 <30 μM) BRD4(1) [1]: Active; FRET activity (IC50 <30 μM) BRD2(2) [2]: Active; c-myc activity (IC50 <30 μM) [3]: Not Active; Cell Proliferation activity (IC50 <30 μM) [4]: Active; IL-6 activity (IC50 <30 μM) [5]: Not Active

Q: What does the source list for Cc1cccc(Cn2cc(-c3c(C)noc3C)ccc2=O)c1 [Example 122, 5-(3,5-Dimethylisoxazol-4-yl)-1-(3-methylbenzyl)pyridin-2(1H)-one]?
A: FRET activity (IC50 <30 μM) BRD4(1) [1]: Active; FRET activity (IC50 <30 μM) BRD2(2) [2]: Active; c-myc activity (IC50 <30 μM) [3]: Active; Cell Proliferation activity (IC50 <30 μM) [4]: Active; IL-6 activity (IC50 <30 μM) [5]: Active

Q: Which results are given for Cc1noc(C)c1-c1ccc(=O)n(Cc2ccccc2C(F)(F)F)c1 [Example 123, 5-(3,5-Dimethylisoxazol-4-yl)-1-(2-(trifluoromethyl)benzyl)pyridin-2(1H)-one]?
A: FRET activity (IC50 <30 μM) BRD4(1) [1]: Active; FRET activity (IC50 <30 μM) BRD2(2) [2]: Active; c-myc activity (IC50 <30 μM) [3]: Active; Cell Proliferation activity (IC50 <30 μM) [4]: Active; IL-6 activity (IC50 <30 μM) [5]: Active

Q: How did the “FRET activity (IC50 <30 μM) BRD4(1)” value [1] turn out when Cc1noc(C)c1-c1ccc(=O)n(C(C)c2ccccc2F)c1 (stereo not drawn) [Example 124, 5-(3,5-Dimethylisoxazol-4-yl)-1-(1-(2-fluorophenyl)ethyl)pyridin-2(1H)-one] was run?
A: Active

Q: And the “FRET activity (IC50 <30 μM) BRD2(2)” value [2]?
A: Active

Q: What about the “c-myc activity (IC50 <30 μM)” value [3] of the same compound?
A: Active

Q: And the “Cell Proliferation activity” value [4]?
A: Active

Q: And the “IL-6 activity (IC50 <30 μM)” value [5]?
A: Active

Q: Cc1noc(C)c1-c1ccc(=O)n(Cc2cccc(Cl)c2)c1 [Example 126, 1-(3-Chlorobenzyl)-5-(3,5-dimethylisoxazol-4-yl)pyridin-2(1H)-one] was tested. Which “FRET activity (IC50 <30 μM) BRD4(1)” value [1] did it give?
A: Active

Q: What about the “FRET activity (IC50 <30 μM) BRD2(2)” value [2] of the same compound?
A: Active

Q: What about the “c-myc activity (IC50 <30 μM)” value [3] of the same compound?
A: Active

Q: What about the “Cell Proliferation activity” value [4] of the same compound?
A: Active

Q: What about the “IL-6 activity (IC50 <30 μM)” value [5] of the same compound?
A: Active
